Values quoted from earlier work in patent publication US20080241117A1, “Oral Care Compositions Containing a Mixed Tocopherol Component” (priority 2007, published 2008).
Where two headings read alike, the source gives them in different places.

Tests used:
gingivitis [1] = settings: applied topically in toothpaste; humans
gingivitis [2] = settings: applied topically in toothpaste; primates
[3] = applied topically in toothpaste
[4] = system: prostaglandin E2 in gingival crevicular fluid; settings: applied topically in rinse form

Compound | effect on gingivitis (gingivitis [1]) | effect on gingivitis (gingivitis [2]) | penetration of gum tissue [3] | level of prostaglandin E2 in gingival crevicular fluid [4]
Cc1c(C)c2c(c(C)c1O)CC[C@@](C)(CCC[C@H](C)CCC[C@H](C)CCCC(C)C)O2 [alpha tocopherol] | fails to provide an effect on gingivitis | fails to provide an effect on gingivitis | penetrates gum tissue | 
tocopherol [vitamin E] |  |  |  | reduced level of prostaglandin E2
